Laboratory results: patent publication US9421237B2, “Tripeptide boronic acid or boronic ester, preparative method and use thereof” (PEKING UNIVERSITY, priority 2009, dated 2016)

Columns and labels:
[1] = system: HL-60, BXPC-3, U266 and BGC-823 cells; experiment: In vitro anti-tumor activity (IC50), summary over the four tumor cell lines; format: cell-based
Source text: According to the results of aforementioned preliminary anti-tumor activities screening tests, those compounds which have better anti-tumor activities were selected to measure their IC50 values on four types of tumor cell lines: HL-60 (promyelocytic leukemia cell strain), BXPC-3 (human pancreatic cancer cell strain), U266 (multiple myeloma cell strain) and BGC-823 (human gastric carcinoma cell strain). HL-60, BXPC-3 and U266 were obtained from the American Type Culture Collection (Manassas, Va.), and BGC-823 (human gastric carcinoma cell strain) was obtained from China Pharmaceutical University.
(§1) Test methods: HL-60 cells were cultured in IMDM medium containing 20% fetal bovine serum at 37° C. in 5% CO2; BGC-823 cells and BXPC-3 cells were cultured in RPMI1640 medium containing 10% fetal bovine serum at 37° C. in 5% CO2; U266 cells were cultured in RPMI1640 medium containing 15% fetal bovine serum at 37° C. in 5% CO2.
The cell growth was measured by the standard MTT method. […] The precipitates were dissolved in 100 μL of DMSO, and absorbance was read with an Infinite M200 (Tecan, Austria) microplate reader at 540 nm.
(§2) The result was expressed as IC50 value, which is the average value of three independent determinations.

[2] = system: HL-60 (promyelocytic leukemia cell strain); experiment: In vitro anti-tumor activity (IC50), standard MTT method; format: cell-based; details: Homo sapiens, 72 h, average of three determinations
Experimental: (§3) HL-60, BXPC-3 and U266 were obtained from the American Type Culture Collection (Manassas, Va.), and BGC-823 (human gastric carcinoma cell strain) was obtained from China Pharmaceutical University.
as §1
(§4) The cell growth was measured by the standard MTT method. A dispersions (150 μL, containing 3000 cells) medium was added into each well of a 96-well plate and allowed to grow, after 24 h, ten kinds of medium (50 μL) containing different concentrations of drugs were added into the corresponding wells, and continued to incubate for 72 h. Then a solution containing 5 mg/ml MTT (20 μL) was added into each well and incubated for another 4 h at 37° C. The plate was then centrifugated at 1000 rpm at 4° C. for 5 min, and the medium in upper layer was carefully discarded. The precipitates were dissolved in 100 μL of DMSO, and absorbance was read with an Infinite M200 (Tecan, Austria) microplate reader at 540 nm.
as §2

[3] = system: U266 (multiple myeloma cell strain); experiment: as above; format: cell-based; details: Homo sapiens, U-266, 72 h, average of three determinations
Experimental: as §3, §1, §4, §2

[4] = system: BXPC-3 (human pancreatic cancer cell strain); experiment: as above; format: cell-based; details: 72 h, average of three determinations
Experimental: as §3, §1, §4, §2

[5] = system: BGC-823 (human gastric carcinoma cell strain); experiment: as above; format: cell-based; details: 72 h, average of three determinations
Experimental: as §3, §1, §4, §2

| Compound | Inhibition of growth of three types of cells, compared with PS341 [1] | melting point [°C] | IC50 [2] [nM] | IC50 [3] [nM] | IC50 [4] [nM] | IC50 [5] [nM] |
| --- | --- | --- | --- | --- | --- | --- |
| CC(C)C[C@H](NC(=O)[C@H](Cc1ccc2ccccc2c1)NC(=O)[C@H](CC(C)C)NC(=O)c1cnccn1)B(O)O [Compound 6f, N-pyrazineformyl-L-leucyl-L-naphthylalanyl-L-leucine Boronic Acid] | better than those of PS341 | 157 to 159 | 4.6 | 9.9 | 21.2 | 600 |
| CC(C)C[C@H](NC(=O)[C@H](Cc1ccc2ccccc2c1)NC(=O)[C@H](Cc1ccccc1)NC(=O)c1cnccn1)B(O)O [Compound 6g, N-pyrazineformyl-L-phenylalanyl-L-naphthylalanyl-L-leucine Boronic Acid] |  |  | 7.4 | 15.8 | 28.7 | 1040 |
